Reference: patent publication US20050281850A1, “Cosmetic/dermatological inverse emulsions containing calcitriol and clobetasol 17-propionate” (GALDERMA S.A., priority 2004, published 2005)

Key:
Format in all cases: physicochemical
[1] = Stability of calcitriol in Cetiol SN (HPLC assay against reference substance); conditions: for Calcitriol concentration measured as % relative to T0: 30 ppm in Cetiol SN, 0.4% BHT
Description: (§1) c) Stability of Calcitriol in Cetiol SN (Cetearyl Isononanoate): 30 ppm solution of calcitriol in qs 100% Cetiol SN (cetearyl isononanoate) in the presence of 0.4% BHT. HPLC assay technique against reference substance. At the initial time (T0), it is considered that the composition comprises 100% calcitriol. Calcitriol concentration measured as % relative to T0: […]

[2] = Stability of calcitriol in Miglyol 812 (HPLC assay against reference substance); conditions: for Calcitriol concentration measured as % relative to T0: 30 ppm in Miglyol 812, 0.4% BHT
Description: as §1, with “b)” for “c)”, “Miglyol 812 (Caprylic/-15 Capric Triglycerides)” for “Cetiol SN (Cetearyl Isononanoate):”, “Miglyol 812” for “Cetiol SN (cetearyl isononanoate)”

[3] = Stability of calcitriol in ethanol (HPLC assay against reference substance); conditions: 30 ppm in absolute ethanol, 0.02% BHT
Description: as §1, with “a)” for “c)”, “Ethanol:” for “Cetiol SN (Cetearyl Isononanoate):”, “of absolute ethanol” for “Cetiol SN (cetearyl isononanoate)”, “0.02%” for “0.4%”

Calcitriol concentration measured as % relative to T0 ([1]; +4° C., T2 weeks): 98.6% | Calcitriol concentration measured as % relative to T0 ([1]; +4° C., T4 weeks): 98.1% | Calcitriol concentration measured as % relative to T0 ([1]; +40° C., T2 weeks): 99.0% | Calcitriol concentration measured as % relative to T0 ([1]; +40° C., T4 weeks): 98.9% | Calcitriol concentration measured as % relative to T0 ([1]; RT, T2 weeks): 98.7% | Calcitriol concentration measured as % relative to T0 ([1]; RT, T4 weeks): 98.4% | Stability of calcitriol in Cetiol SN (in words) ([1]; in Cetiol SN): good stability | Calcitriol concentration measured as % relative to T0 ([2]; +4° C., T2 weeks): 98.3% | Calcitriol concentration measured as % relative to T0 ([2]; +4° C., T4 weeks): 105.2% | Calcitriol concentration measured as % relative to T0 ([2]; +40° C., T2 weeks): 91% | Calcitriol concentration measured as % relative to T0 ([2]; +40° C., T4 weeks): 93.8% | Calcitriol concentration measured as % relative to T0 ([2]; RT, T2 weeks): 95.1% | Calcitriol concentration measured as % relative to T0 ([2]; RT, T4 weeks): 98.0% | Stability of calcitriol in Miglyol 812 (in words) ([2]; in Miglyol 812): good stability | Calcitriol concentration measured as % relative to T0 ([3]; +4° C., T1 week): 97.7% | Calcitriol concentration measured as % relative to T0 ([3]; +4° C., T2 weeks): 98.6% | Calcitriol concentration measured as % relative to T0 ([3]; +4° C., T3 weeks): 98.1% | Calcitriol concentration measured as % relative to T0 ([3]; +4° C., T4 weeks): 97.7% | Calcitriol concentration measured as % relative to T0 ([3]; +30° C., T2 weeks): 93.4% | Calcitriol concentration measured as % relative to T0 ([3]; +30° C., T4 weeks): 93.0% | Calcitriol concentration measured as % relative to T0 ([3]; −18° C., T1 week): 100.9% | Calcitriol concentration measured as % relative to T0 ([3]; −18° C., T2 weeks): 100.5% | Calcitriol concentration measured as % relative to T0 ([3]; −18° C., T3 weeks): 99.5% | Calcitriol concentration measured as % relative to T0 ([3]; −18° C., T4 weeks): 99.5%
Structure (SMILES): C=C1/C(=C\C=C2/CCC[C@]3(C)[C@@H]([C@H](C)CCCC(C)(C)O)CC[C@@H]23)C[C@@H](O)C[C@@H]1O [calcitriol]
